Target: Oxoeicosanoid receptor 1 (Homo sapiens, UniProt Q8TDS5)
Assay: Antagonist activity at 5-oxo-ETE receptor in human neutrophils assessed as inhibition of 5-oxo-ETE-induced Ca2+ mobilization incubated for 2 mins prior to 5-oxo-ETE addition by indo-1 staining-based spectrofluorometry
Type: functional

Oxoeicosanoid receptor 1, sequence (Q8TDS5 whole entry): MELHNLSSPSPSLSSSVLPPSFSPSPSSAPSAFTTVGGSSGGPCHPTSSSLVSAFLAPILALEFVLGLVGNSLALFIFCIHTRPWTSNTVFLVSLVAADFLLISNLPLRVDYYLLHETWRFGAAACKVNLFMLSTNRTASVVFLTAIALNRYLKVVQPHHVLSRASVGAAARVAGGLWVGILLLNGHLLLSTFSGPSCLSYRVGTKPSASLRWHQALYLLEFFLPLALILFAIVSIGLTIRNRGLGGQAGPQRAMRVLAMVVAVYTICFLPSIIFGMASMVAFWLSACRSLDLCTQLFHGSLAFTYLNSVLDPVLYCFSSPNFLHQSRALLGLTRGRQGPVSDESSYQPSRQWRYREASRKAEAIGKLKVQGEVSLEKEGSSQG

SMILES | IC50 [µM]
CCCC/C=C\c1cc2ccc(Cl)cc2n1C(=O)CC(C)CC(=O)O (configuration not stated) | 0.46
CCCC/C=C/c1cc2ccc(Cl)cc2n1C(=O)CC(C)CC(=O)O (configuration not stated) | 18.5
